Measured values taken from US5663205A, “Pharmaceutical composition for use in glaucoma treatment” (Senju Pharmaceutical Co. Ltd., priority 1992, dated 1997).

Experiments:
[1] = system: β-adrenergic; conditions: cited from earlier work
[2] = system: cornea; assay: Test Example 7 (2)(d): observation on fluorescein-dyed spots of the cornea; type: in vivo, Japanese white rabbits; conditions: 1% and 0.5% ophthalmic solutions, 28 days
Procedure: (2) Ocular local toxicity test in rabbits of 1.0% and 0.5% ophthalmic solutions of amosulalol hydrochloride by consecutive instillation for 28 days: With 15 male Japanese white rabbits divided into 3 groups each consisting of 5 rabbits, 1.0% and 0.5% ophthalmic solutions of amosulalol hydrochloride as well as physiological saline as a control were applied in one drop (0.05 ml) per time to the right eye of each rabbit alone, four times a day at a regular interval of 2.5 hours, for 28 days consecutively with the left eye being left untreated. (d) Observation on fluorescein-dyed spots of the cornea: Before instillation of 1.0% and 0.5% ophthalmic solutions of amosulalol hydrochloride as well as on the day (Day 1) of initiating the instillation and on the 2nd, 4th, 7th, 14th, 21st, 28th days after initiating the instillation but each time after completion of such instillation, and on the morning of the last instillation (29th day), 10 μl of 0.1% aqueous fluorescein solution was applied topically to the eyes of each test animal, and observation was performed on the abrasion of the corneal epithelial cells with a photo-slit lamp.

[3] = system: Normal Intraocular Pressure; assay: Test Example 1 (1): intraocular pressure reducing activity on normal intraocular pressure, pigmented rabbits; type: in vivo, pigmented rabbits (Dutch belted rabbits)
Procedure: Intraocular Pressure Reducing Activity of Amosulalol Hydrochloride on Normal Intraocular Pressure in Pigmented Rabbits Male pigmented rabbits (Dutch belted rabbits) weighing about 2 kg, after having been confirmed to be free from ocular abnormalities; were bred in a breeding room maintained at a temperature of 24± 4° C. and at a relative humidity of 55± 15%, while they were given solid food (Labo RG-RO manufactured by Nihon Nohsan Kogyo K.K.) at a daily rate of 100 g per rabbit and allowed free access to tap water as drinking water. As a test drug, amosulalol hydrochloride was processed into 0.05% (hereinafter, the term "%" is to be understood to designate "w/v %") and 1.0% aqueous solutions which were used in the test, and 0.5% timolol maleate ophthalmic solution [Timoptol (registered trademark): Ban-yu Pharmaceutical Co.] and physiological saline were used as a positive control drug and a control substance, respectively. (1) Measurement of intraocular pressure: Thirty two (32) rabbits were divided into four groups each consisting of 8 rabbits, and 50 μl of test drugs as well as the control drug and physiological saline were applied topically to one eye each of the individual rabbits, with the other being left untreated. Before instillation and 0.5, 1, 2, 3, 4, 6 and 8 hours after topical application,intraocular pressure for both of eyes of each rabbit was measured using a Pneumatonograph (manufactured by Alcon Co. Hereinafter referred to briefly as "PTG"). Shown in FIG. 1 are time-course changes of intraocular pressure taken with the eyes treated by instillation of each of the test drugs, control drug and physiological saline, with time (hour) after instillation taken as abscissa and intraocular pressure (mmHg as ordinate; each value in mean±S.E. (number of cases is 8). The signs "a", "b", "d" and "e" designate physiological saline, 0.05% aqueous solution of amosulalol hydrochloride, 1.0% aqueous solution of amosulalol hydrochloride, and 0.5% ophthalmic solution of timolol maleate, respectively.

[4] = system: corneal epithelial and endothelial cells; assay: Test Example 7 (2)(e): scanning electron microscope evaluation of corneal epithelial and endothelial cells; type: in vivo, Japanese white rabbits; conditions: 1% and 0.5% ophthalmic solutions, 28 days
Procedure: (2) Ocular local toxicity test in rabbits of 1.0% and 0.5% ophthalmic solutions of amosulalol hydrochloride by consecutive instillation for 28 days: With 15 male Japanese white rabbits divided into 3 groups each consisting of 5 rabbits, 1.0% and 0.5% ophthalmic solutions of amosulalol hydrochloride as well as physiological saline as a control were applied in one drop (0.05 ml) per time to the right eye of each rabbit alone, four times a day at a regular interval of 2.5 hours, for 28 days consecutively with the left eye being left untreated. (e) Evaluation with a scanning electron microscope of corneal epithelial and endothelial cells; After completion of the instillation of 1.0% and 0.5% ophthalmic solutions of amosulalol hydrochloride, morphological observation was done on corneal epithelial and endothelial cells in 3 eyes each of the two groups.

[5] = system: Normal Intraocular Pressure; assay: Test Example 2 (1): intraocular pressure reducing activity on normal intraocular pressure, pigmented rabbits; type: in vivo, pigmented rabbits (Dutch belted rabbits)
Procedure: Intraocular Pressure Reducing Activity of Amosulalol Hydrochloride on Normal Intraocular Pressure in Pigmented Rabbits Forty (40) male pigmented rabbits (Dutch belted rabbits) weighing about 2 kg, after having been confirmed to be free from ocular abnormalities, were bred in a breeding room maintained at a temperature of 24± 4° C. and at a relative humidity of 55± 15%, while they were fed solid food (Labo RG-RO, manufactured by Nihon Nohsan Kogyo K.K.) at a daily rate of 100 g per rabbit and allowed free access to tap water as drinking water. As a test drug, amosulalol hydrochloride was processed into 0.05%, 0.5% and 1.0% aqueous solutions which were used in the test, and 0.5% timolol maleate ophthalmic solution [Timoptol (registered trademark): Ban-yu Pharmaceutical Co.] and physiological saline were used as a positive control drug and a control substance, respectively. (1) Measurement of intraocular pressure: Forty (40) rabbits were divided into five groups. each consisting of 8 heads, and 50 μl of test drug as well as the control drug and physiological saline were applied topically to one eye each of the individual rabbits, with the other being left untreated. Before instillation and 0.5, 1, 2, 3, 4, 6 and 8 hours after topical application respectively, intraocular pressure for both eyes of each rabbit was measured using PTG. Time-course changes of intraocular pressure measurements taken with the eyes treated by instillation of each of the test drugs, control drug and physiological saline, are illustrated in FIGS. 2 (for treated eyes) and 3 (for non-treated eyes), respectively, with time (hour) after instillation taken as abscissa and intraocular pressure (mmHg) as ordinate; each value in mean ± S.E. (the number in each case is 8). The signs "a", "b", "c", "d" and "e" designate physiological saline, 0.05% aqueous solution of amosulalol hydrochloride, 0.5% aqueous solution of amosulalol hydrochloride, 1.0% aqueous solution of amosulalol hydrochloride and 0.5% solution of timolol maleate, respectively.

COc1ccccc1OCCNCC(O)c1ccc(C)c(S(N)(=O)=O)c1.Cl (stereo not shown) [amosulalol hydrochloride, 5-[1-hydroxy-2-[2-(2-methoxyphenoxy)ethylamino]ethyl]-2-methylbenzenesulfonamide hydrochloride]
β-adrenergic blocking activity [1]: exhibit both α-adrenergic and β-adrenergic blocking activities | observation of fluorescein-dyed spots in the cornea [2]: no abnormalities | maximum decrease in intraocular pressure ([3]; 0.05% aqueous solution, 2 hours after topical application): 3.6 mmHg | maximum decrease in intraocular pressure ([3]; 1.0% aqueous solution, 50 μl topical, 3 hours after instillation): 9.0 mmHg | decrease in intraocular pressure sustained until (time after instillation) ([3]; 1.0% aqueous solution, sustained from 30 min after instillation): 6 h | scanning electron microscope evaluation of corneal epithelial and endothelial cells [4]: no abnormalities | maximum drop in intraocular pressure ([5]; 0.05% aqueous solution, treated eyes, 2 hours after instillation): 3.6 mmHg | intraocular pressure reducing activity compared with 0.5% timolol maleate ophthalmic solution ([5]; 0.05%, normal eyes): more potent intraocular pressure reducing activity | maximum decrease in intraocular pressure ([5]; 0.5% aqueous solution, treated eyes, 2 hours after topical application): 6.2 mmHg | significant drop in intraocular pressure until (time after topical application) ([5]; 0.5% aqueous solution, treated eyes, from 30 min): 4 h | maximum decrease in intraocular pressure ([5]; 1.0% aqueous solution, treated eyes, 3 hours after instillation): 9.0 mmHg | decrease in intraocular pressure sustained until (time after instillation) ([5]; 1.0% aqueous solution, treated eyes, sustained from 30 min after instillation): 6 h | change in intraocular pressure of the other, non-treated eyes ([5]; non-treated eyes (FIG. 3)): no significant change
